# Assay: Dissociation constant, pKa of the compound
# Type: physicochemical
row,pKa,Structure (SMILES)
1,6.6,NC(=O)CNC1CCC(OCc2cc(C(F)(F)F)cc(C(F)(F)F)c2)C1c1ccccc1 (configuration not stated)
2,6.2,C[C@@H](O[C@H]1CC[C@@H](N(C)Cc2c[nH]c(O)n2)[C@@H]1c1ccc(F)cc1)c1cc(C(F)(F)F)cc(C(F)(F)F)c1
3,5.3,C[C@@H](O[C@H]1CC[C@@H](N(C)CC(N)=O)[C@@H]1c1ccc(F)cc1)c1cc(C(F)(F)F)cc(C(F)(F)F)c1
4,5.3,CNC(=O)CN(C)[C@@H]1CC[C@H](O[C@H](C)c2cc(C(F)(F)F)cc(C(F)(F)F)c2)[C@H]1c1ccc(F)cc1
5,5.8,CN(CC(N)=O)C1CCC(OCc2cc(C(F)(F)F)cc(C(F)(F)F)c2)C1c1ccccc1 (configuration not stated)
6,4.7,C[C@@H](O[C@H]1CC[C@@H](N(C)Cc2n[nH]c(O)n2)[C@@H]1c1ccc(F)cc1)c1cc(C(F)(F)F)cc(C(F)(F)F)c1
7,< 3.5,C[C@@H](O[C@H]1OCCN(Cc2n[nH]c(=O)[nH]2)[C@H]1c1ccc(F)cc1)c1cc(C(F)(F)F)cc(C(F)(F)F)c1 [APREPITANT]

# Reference: ChEMBL document CHEMBL1148682, “Cyclopentane-based human NK1 antagonists. Part 2: development of potent, orally active, water-soluble derivatives” (Bioorg Med Chem Lett, 2006)
